{"source": "patent US12364670B2", "about": "“Cannabidiol-type cannabinoid compound” (JAZZ PHARMACEUTICALS RESEARCH UK LIMITED, priority 2019, dated 2025)", "key": {"[1]": {"test_system": "electroshock-induced generalised seizure threshold (MEST) in the mouse", "test": "Maximal electroshock seizure threshold (MEST) test in the mouse, Example 3", "conditions": "for CC50 ± SEM: vehicle CC50 24.3", "description": "The efficacy of CBD-C6 was tested in a mouse model of generalised seizure, the maximal electroshock seizure threshold (MEST) test as described in Example 2.\nNaïve mice were acclimatised to the procedure room in their home cages for up to 7 days, with food and water available ad libitum.\nAll animals were weighed at the beginning of the study and randomly assigned to treatment groups based on a mean distribution of body weight across groups.\nThe first animal within a treatment group was given a shock at the expected or estimated CC50 current. For subsequent animals, the current was lowered or raised depending on the convulsions outcome from the preceding animal.\nData generated from each treatment group were used to calculate the CC50±SEM values for the treatment group.\nVehicle: (5% ethanol, 5% solutol, 90% Saline) was prepared as follows: 1 mL of ethanol, 1 mL of solutol were warmed to 60° C., in 18 mL of saline (1:1:18).\nThe test compound, CBD-C6 was prepared according to the method described in Example 1. CBD-C6 was administered at 10, 30 and 100 mg/kg (i.p.) in a 1:1:18 ethanol:solutol:0.9% saline formulation.\nCBD-C6 effects were also calculated as percentage change in CC50 from the vehicle control group. Significant difference between drug-treated animals and controls were assessed according to Litchfield and Wilcoxon (1949)."}, "[2]": {"test_system": "electroshock-induced tonic hind limb extensor seizure (MEST) in the mouse", "test": "Maximal electroshock seizure threshold (MEST) test in the mouse, Example 2", "conditions": "for CC50 +/- SEM: vehicle CC50 21.0", "description": "The efficacy of CBD-C6 was tested in a mouse model of seizure, the maximal electroshock seizure threshold (MEST) test.\nThe maximal electroshock seizure threshold (MEST) test is widely utilized preclinically to evaluate pro- and anti-convulsant properties of molecules (Loscher et al., 1991).\nIn the MEST test the ability of a drug to alter the seizure threshold current required to induce hind limb tonic extensor convulsions is measured according to an “up and down” method of shock titration (Kimball et al., 1957). An increase in seizure threshold is indicative of anti-convulsant effect.\nNaïve mice were acclimatised to the procedure room in their home cages, with food and water available ad libitum.\nAnimals were dosed i.p. according to dose group.\nThe vehicle (10 ml/kg i.p. 60 min pre-treatment time) was 1:1:18 vehicle 5% ethanol, 5% kolliphor EL, 90% saline.\nThe test compound, CBD-C6 was administered at doses of 10, 30 and 100 mg/kg given at 10 ml/kg i.p. 180 min pre-treatment time.\nMice were individually assessed for the production of a tonic hind limb extensor seizure using a Hugo Sachs Electronik stimulator, which delivered an adjustable constant current (1-300 mA) of 0.1 s duration via corneal electrodes.\nThe stimulus intensity was varied by an ‘up and down’ method of shock titration.\nThis procedure continued for all mice within the treatment group. Data generated from treatment group of n=12 was used to calculate the CC50±s.e.m. values according to the method of Kimball et al. (1957).\nInduction of seizure is measured as an all-or-nothing effect scored as either present (+) or absent (0) for each animal.\nData was analysed by comparing treated groups with the appropriate vehicle control using Fisher's Exact Probability tests."}, "[3]": {"conditions": "10 mg/kg i.p., 60 min pre-treatment"}, "[4]": {"conditions": "30 mg/kg i.p., 60 min pre-treatment"}, "[5]": {"conditions": "100 mg/kg i.p., 120 min pre-treatment"}, "[6]": {"conditions": "10 mg/kg i.p., 180 min pre-treatment"}, "[7]": {"conditions": "30 mg/kg i.p., 180 min pre-treatment"}, "[8]": {"conditions": "100 mg/kg i.p., 180 min pre-treatment"}, "[9]": {"conditions": "2.5 mg/kg i.p., 30 min pre-treatment"}}, "data": [{"smiles": "C=C(C)[C@@H]1CCC(C)=C[C@H]1c1c(O)cc(CCCCCC)cc1O", "note": "[CBD-C6, Cannabidiol-C6]", "values": [{"measurement": "% change from vehicle (CC50)", "setting": "[1]; [3]", "result": 27, "unit": "%"}, {"measurement": "CC50 ± SEM", "setting": "[1]; [3]", "result": "30.8 ± 1.9", "unit": "mA"}, {"measurement": "% change from vehicle (CC50)", "setting": "[1]; [4]", "result": 29, "unit": "%"}, {"measurement": "CC50 ± SEM", "setting": "[1]; [4]", "result": "31.5 ± 1.0", "unit": "mA"}, {"measurement": "% change from vehicle (CC50)", "setting": "[1]; [5]", "result": 239, "unit": "%"}, {"measurement": "CC50 ± SEM", "setting": "[1]; [5]", "result": "82.5 ± 0.7", "unit": "mA"}, {"measurement": "effect on MEST (in words)", "setting": "[1]; 10, 30 and 100 mg/kg i.p., compared to vehicle", "result": "dose-related increase in MEST"}, {"measurement": "% change from vehicle (CC50)", "setting": "[2]; [6]", "result": 11, "unit": "%"}, {"measurement": "CC50 +/- SEM", "setting": "[2]; [6]", "result": 23.4, "unit": "mA"}, {"measurement": "% change from vehicle (CC50)", "setting": "[2]; [7]", "result": 63, "unit": "%"}, {"measurement": "CC50 +/- SEM", "setting": "[2]; [7]", "result": 34.3, "unit": "mA"}, {"measurement": "% change from vehicle (CC50)", "setting": "[2]; [8]", "result": 376, "unit": "%"}, {"measurement": "CC50 +/- SEM", "setting": "[2]; [8]", "result": ">100", "unit": "mA"}]}, {"smiles": "CN1C(=O)CN=C(c2ccccc2)c2cc(Cl)ccc21", "note": "[Diazepam, diazepam, reference compound]", "values": [{"measurement": "% change from vehicle (CC50)", "setting": "[1]; [9]", "result": 255, "unit": "%"}, {"measurement": "% change from vehicle (CC50)", "setting": "[2]; [9]", "result": 40, "unit": "%"}]}, {"smiles": "CCCC(CCC)C(=O)[O-].[Na+]", "note": "[Sodium Valproate, sodium valproate, reference compound]", "values": [{"measurement": "% change from vehicle (CC50)", "setting": "[1]; 250 mg/kg i.p., 30 min pre-treatment", "result": 1057, "unit": "%"}]}]}
